Measured values: patent publication US8609643B2, “2-methylene-(20S,25R)-19,26-dinor-vitamin D analogs” (Wisconsin Alumni Research Foundation, priority 2007, dated 2013)

How the values were obtained:
[1] = system: 24-hydroxylase (24Ohase) gene promoter; assay: In vitro transcription assay, luciferase reporter in ROS 17/2.8 (bone) cells; format: cell-based; details: ROS 17/2.8 cells, 24Ohase promoter-luciferase; FIG. 3; read-out: EC50, transcriptional activity in bone cells (24-hydroxylase gene)
Method: Transcription activity was measured in ROS 17/2.8 (bone) cells that were stably transfected with a 24-hydroxylase (24Ohase) gene promoter upstream of a luciferase reporter gene (Arbour et al., 1998). Cells were given a range of doses. Sixteen hours after dosing the cells were harvested and luciferase activities were measured using a luminometer.
RLU=relative luciferase units.

[2] = Intestinal calcium transport, everted gut sac method, vitamin D-deficient rats; format: in vivo, Sprague-Dawley rats; details: ip, FIGS. 5A and 5B
Method: (§1) Male, weanling Sprague-Dawley rats were placed on Diet 11 (0.47% Ca) diet+AEK oil for one week followed by Diet 11 (0.02% Ca)+AEK oil for 3 weeks. The rats were then switched to a diet containing 0.47% Ca for one week followed by two weeks on a diet containing 0.02% Ca. Dose administration began during the last week on 0.02% calcium diet. Four consecutive ip doses were given approximately 24 hours apart. Twenty-four hours after the last dose, blood was collected from the severed neck and the concentration of serum calcium determined as a measure of bone calcium mobilization. The first 10 cm of the intestine was also collected for intestinal calcium transport analysis using the everted gut sac method.

[3] = Bone calcium mobilization (serum calcium) in vitamin D-deficient rats; format: in vivo, Sprague-Dawley rats; details: ip
Method: as §1

[4] = system: HL-60 cells; assay: HL-60 cell differentiation (nitro blue tetrazolium reduction); format: cell-based, Human; details: for EC50: HL-60 differentiation into monocytes, FIG. 2
Method: The study drugs were dissolved in ethanol and the concentrations determined using UV spectrophotometry. Serial dilutions were prepared so that a range of drug concentrations could be tested without changing the final concentration of ethanol (≦0.2%) present in the cell cultures.
Human promyelocytic leukemia (HL60) cells were grown in RPMI-1640 medium containing 10% fetal bovine serum. The cells were incubated at 37° C. in the presence of 5% CO2.
HL60 cells were plated at 1.2×10^5 cells/ml. Eighteen hours after plating, cells in duplicate were treated with drug. Four days later, the cells were harvested and a nitro blue tetrazolium reduction assay was performed (Collins et al., 1979; J. Exp. Med. 149:969-974). The percentage of differentiated cells was determined by counting a total of 200 cells and recording the number that contained intracellular black-blue formazan deposits. Verification of differentiation to monocytic cells was determined by measuring phagocytic activity (data not shown).

| EC50 ([4]; Homo sapiens) | Structure (SMILES) | EC50 [1] | intestinal calcium transport ([2]; 260 pmol/day) | serum calcium levels (bone calcium mobilization) ([3]; all dosages, rats on 0.02% Ca diet, FIGS. 4A and 4B) | EC50 [4] | intestinal calcium transport ([2]; 7020 pmol/day) | bone calcium mobilization (serum calcium) ([3]; 260 pmol/day for 4 consecutive days, rats on 0.02% Ca diet) | bone calcium mobilization (serum calcium) ([3]; 7020 pmol/day, rats on 0.02% Ca diet) | potency in mobilizing bone calcium relative to the native hormone (times less potent) ([3]; versus 1,25(OH)2D3, rats) | potency on HL-60 cell differentiation relative to 1,25(OH)2D3 (times more potent) ([4]; versus 1,25(OH)2D3) |
| --- | --- | --- | --- | --- | --- | --- | --- | --- | --- | --- |
| – | C=C1/C(=C\C=C2/CCC[C@]3(C)[C@@H]([C@H](C)CCCC(C)(C)O)CC[C@@H]23)C[C@@H](O)C[C@@H]1O [1,25(OH)2D3, 1α,25-dihydroxyvitamin D3, reference compound] | 0.2 nM | promotes a significant increase | increased serum calcium levels at all dosages | 2 nM | – | – | – | – | – |
| 0.1 nM | C=C1[C@H](O)CC(=C/C=C2\CCC[C@@]3(C)C2CC[C@@H]3[C@@H](C)CCC[C@@H](C)O)C[C@H]1O (stereo partly drawn) [SR1, 2-methylene-(20S,25R)-19,26-dinor-1α,25-dihydroxyvitamin D3] | 0.01 nM | promotes intestinal calcium transport only slightly | – | – | significant intestinal calcium transport activity was recorded | did not result in mobilization of bone calcium | without any substantial effect | approximately 30 times | about 10 times |
